Measurements published in US11617748B2, “Meclozine derivatives and diclazuril derivatives for use in the prevention and/or the treatment of disorders associated to the inflammation induced by P. acnes” (priority 2016, dated 2023).

Assays:
Format in all cases: cell-based, human
HaCaT cells = test: MTT cell viability assay on HaCaT keratinocytes
Experimental: Cell culture, pretreatment and stimulation. The immortalized human keratinocyte cell line HaCaT, fibroblast MRC5 were grown in Dulbecco's modified Eagle's medium-Glutamax-I (DMEM) with 1 mM sodium pyruvate. […] DMEM and RPMI were supplemented with 0.1% and 10% heat-inactivated fetal calf serum (Invitrogen), and an antibiotic/antimycotic solution (10 U/ml Pencillin, 10 μg/ml Streptomycin, 0.25 μg/ml Amphoterin) at 37° C. in humidified atmosphere containing 5% CO2 as described (Life Technologie). Primary human keratinocytes (NHDK) and fibroblast (HDF) were grown in the KGM-Gold and in FGM-2 Bullet Kit, respectively, as described by the manufacturer (Lonza). The immortalized cell lines were routinely tested to assess the absence of Mycoplasma infection. Cells, cultivated in 6- or 96-well polystyrene plates, were pretreated with appropriate molecule solution for 1 to 48 h at 37° C. in the dark at the appropriate concentration. Then, for stimulation, cells were incubated for 15 min to 24 h with the P. acnes suspension adjusted at the appropriate concentration at 37° C. in 5% CO2. For experiences using an in vitro model of psoriasis, the primary human keratinocytes (NHDK) were grown in culture medium for 24 hours.
Cell viability assays. Viability of cells was estimated by using the MTT assay where cells were incubated with a 0.2% MTT solution in cell culture medium for 4 h at 37° C. The MTT solution was then discarded and DMSO added to solubilize the MTT-formazan cristals produced in living cells. After thorough mixing, the absorbance was measured at 540 nm.

PI3K = test: Western blot of p-PI3K/PI3K in P. acnes-stimulated HaCaT cells; settings: 25 μM, 24 h pre-treatment
Experimental: (§1) Western Blot analysis. Whole cell protein extracts (25 μg) were separated by electrophoresis (LDS-PAGE) under denaturing conditions with NuPAGE Novex 4-12% Bis-Tris gel (1 mm, 12 wells, Invitrogen, UK) and proteins were transferred onto nitrocellulose membranes and saturated in 20 ml of saturation buffer consisting of TBS 1× (Tris Buffered Saline) containing 200 mM Tris, 1.4 M NaCl (pH 7.6), 5% no fat milk, 0.1% Tween 20 for 1 h. […] After washing to remove unbound antibodies, bound primary antibodies were detected by incubation for 1 h using secondary antibody against rabbit- and mouse IgG (Santa Cruz Biotechnology, SC-2357, 1:5000 and SC-2005, 1:5000, respectively). Unbound material was removed by washing and peroxidase activity was detected in a chemiluminescence assay (WesternBright ECL, Advansta, Menlo Park, USA). […]

p38 = test: Western blot of p-p38/p38 in P. acnes-stimulated HaCaT cells; settings: 25 μM, 24 h pre-treatment
Experimental: as §1

SMILES | impact on cell viability (MTT), 48 h pre-treatment (HaCaT cells) | phosphorylation of PI3K induced by P. acnes (PI3K) | phosphorylation of p38 induced by P. acnes (p38)
Cc1cccc(CN2CCN(C(c3ccccc3)c3ccc(Cl)cc3)CC2)c1 (stereo not drawn) [meclozine, Meclozine] | without any major impact on cell viability | prevented the phosphorylation | prevented the phosphorylation
N#CC(c1ccc(Cl)cc1)c1c(Cl)cc(-n2ncc(=O)[nH]c2=O)cc1Cl (stereo not drawn) [diclazuril, Diclazuril] | without any major impact on cell viability | prevented the phosphorylation | prevented the phosphorylation
